From publication PMC2180168 (BMC Pharmacology, 2007)

Assays:
[1] = tested on: Hodgkin lymphoma cell lines; set-up: method as in PMID 11953894; settings: cited from earlier work
[2] = tested on: anaplastic large cell lymphoma with NPM-ALK fusion protein cell lines; set-up: method as in PMID 11532349; settings: cited from earlier work
[3] = tested on: refractory/relapsed myeloma; settings: patients with refractory/relapsed myeloma; cited from earlier work
[4] = tested on: multiple myeloma cell line; settings: cited from earlier work
[5] = in vivo; settings: CD1, mouse, plasma, ip

| SMILES | effect in Hodgkin lymphoma cell lines [1] | effect in anaplastic large cell lymphoma cell lines [2] | response in phase II trial [3] | in vitro antiproliferative effect on a multiple myeloma cell line [4] | AUC(0-t) ([5]; 12 mg/kg/d) [ng·h/mL] | AUC(0-t) ([5]; 12 mg/kg/day) [ng·h/mL] | half-life ([5]; 12 mg/kg/day) [min] |
| --- | --- | --- | --- | --- | --- | --- | --- |
| Cc1ccc(NC(=O)c2ccc(CN3CCN(C)CC3)cc2)cc1Nc1nccc(-c2cccnc2)n1 [imatinib] | minimal effect | minimal effect | no response | antiproliferative effect |  |  |  |
| COc1cc([C@@H]2c3cc4c(cc3[C@@H](O[C@@H]3O[C@@H]5CO[C@@H](C)O[C@H]5[C@H](O)[C@H]3O)[C@H]3COC(=O)[C@H]23)OCO4)cc(OC)c1O [etoposide] |  |  |  |  | 17900 | 20000 | 14.4 |
